Measurements reported in patent US11752122B2 (OKLAHOMA MEDICAL RESEARCH FOUNDATION, priority 2018, dated 2023).

Assays:
mouse model = conditions: cited from earlier work
[1] = test system: ascending aortic constriction (AAC) model; experiment: Cardiac fibrosis in ascending aortic constriction (AAC) model; type: in vivo, mice; conditions: WT C57Bl/6 mice, very low concentration, preliminary unpublished data
From the text: Ascending Aortic Constriction. Ascending aortic constriction was induced by controlled constriction of the ascending aorta as described previously 26. Briefly, mice were anesthetized with 1.5% isoflurane and the ascending aorta was surgically exposed by a mid-thorax incision. A 2 7-0 suture was placed around both the aorta and an adjacent 27-gauge (0.41 mm OD) needle proximal to the origin of the innominate artery. […] Mice were sacrificed and tissues collected 1 month after the surgery.

LDLR mice on HFD = conditions: LDLR mice, very low concentration, preliminary unpublished data
From the text: Mice. Hypercholesterolemic mice deficient for low-density lipoprotein receptors (Ldlr−/−), which only express ApoB-100 (Ldlr−/−Apob100/100, LDLR), were obtained from Jackson Laboratories (B6; 129SLdlrtm1HerApobtm2Sgy/J, stock no. 003000). WT C57bl/6 mice were also obtained from the Jackson Laboratory (stock no. 000664) and served as controls. TGF-β1^platelet-KO-LDLR mice (Pf4Cre+Tgfb1f/f;Ldlr−/−Apob100/100;) and TGF-β1^flox-LDLR littermate controls (Tgfb1f/f;Ldlr−/−Apob100/100) were generated by crossing LDLR mice with Pf4Cre+;Tgfb1f/f mice, as shown in FIGS. 7A-B and Supplemental Table 5. […] The inventor crossed Tie2Cre mice (stock no. 008863, Jackson Laboratories) with tdTomato lox-stop-lox mice (stock no. 007909, Jackson Laboratories) to generate Tie2Cre;tdTomato mice that express tdTomato only under Cre activity. All mice were housed in a controlled environment (23±2° C.; 12 hours light/dark cycles) and fed either a chow diet (CD) (PicoLab® Rodent Diet 20, 5053) or a customized high fat diet (HFD) (Harlan Teklad, TD.9612102. containing 21% milk fat (MF), 1.25% Cholesterol) in powdered form in a glass jar with perforated metal strainer (DYETS, Braintree Scientific Inc.). The Oklahoma Medical Research Foundation's Institutional Animal Care and Usage Committee approved all procedures.
Experimental Design. A total of 118 LDLR (58 Males, 60 Females) and 20 WT mice (10 Males, 10 Females) were used for this study. Half of the mice (6 weeks old) were switched to HFD and maintained for up to 9 months. Progression and severity (mild/moderate/severe) of AS were monitored at 0, 3, 6 and 9 months by echocardiography using non-invasive ultrasound imaging techniques. Five mice per cage (total of 25 males, 15 females) were treated with 2% N-acetylcysteine (NAC) (Acros Organics, 160280010) in drinking water. NAC was prepared in reverse osmosis water and its pH was adjusted to 7.4 with NaOH. Water was replaced with a fresh solution every week.
Echocardiography. Mice were anesthetized with Isoflurane (3-5% inhalation) in an induction chamber. Mice that appeared to be sick due to severe stenosis or that were underweight were anesthetized using a lower isoflurane level to prevent adverse or lethal effects from the anesthetic. Once visibly anesthetized, isoflurane was reduced to 0.5%-2% and the mouse was moved from the chamber to a nose-cone on a heated platform set at 40° C. to maintain body temperature (35±2° C.). Heavier mice were maintained at higher isoflurane levels as they appeared less sensitive to its anesthetic effects. All four limbs were taped to physiological electrodes and a rectal temperature probe was inserted. Electrode gel was used to enhance the physiologic readings. To ensure accuracy of all echo measurements, physiological parameters were monitored and recordings were only taken if the heart rate was 430-550 beats per minute, respiration was 20-100 breaths per minute, and body temperature was close to 37° C. (35±2° C.).
Measurement of AS parameters using a modified view of ultrasound imaging. Echocardiography is the gold standard non-invasive method to measure AS in humans. However, the mouse heart rate is 10-times faster (500 to 600 beats per minute), making the acquisition of high-resolution images of the very thin non-diseased valves challenging. […] LVOT was measured from the long-axis view and was used to calculate AV pressure and normalize the cusp separation (Lindman et al., 2016; Meyer et al., 2012). This view was obtained by tilting the lower left corner of the platform downward by about 30° and angling the transducer up such that it interfaced with the chest cavity by about 45°.

[2] = 2007 study; cited from earlier work

## CC(=O)N[C@@H](CSN=O)C(=O)O [SNOAC, S-nitroso-N-acetylcysteine]
Mouse model; in vitro and in vivo
  hypoxia-like response in gene expression: induced a hypoxia-like response
Mouse model; mice treated with acetylcysteine, metabolite SNOAC
  blood pressure in the lungs and right ventricle of the heart (pulmonary artery hypertension): increased

## Cc1cccc(-c2nn3c(c2-c2ccnc4ccc(C(N)=O)cc24)CCC3)n1 [galunisertive]
[1]
  cardiac fibrosis induced by ascending aortic constriction: inhibited cardiac fibrosis
LDLR mice on HFD
  AS progression: halted AS progression

## CC(C)c1nc(N(C)S(C)(=O)=O)nc(-c2ccc(F)cc2)c1/C=C/[C@@H](O)C[C@@H](O)CC(=O)O [rosuvastatin]
[2]
  aortic stenosis progression: slowing of aortic stenosis
